Values of other authors as cited in patent publication US5314690A, “Method and composition for treating IgE-mediated allergies” (Northwestern University, priority 1992, dated 1994).
Where two headings read alike, the source gives them in different places. Where no end group is shown, it is not given here.

Experiments:
immune response [1] = details: reported by Siemion et al.; for Effect on the immune response at low doses: low doses (one dose)
immune response [2] = details: reported by Siemion et al.
[3] = listed as C-terminal pentapeptide
[4] = listed as N-terminal tetrapeptide

| Substance | Effect on the immune response in vivo (immune response [1]) | Effect on the immune response in vivo (immune response [1]; [3]) | Effect on the immune response in vitro (immune response [2]) | Effect on the immune response in vitro (immune response [2]; [3]) | Effect on the immune response at higher doses (immune response [1]) | Effect on the immune response at higher doses (immune response [1]; [4]) | Effect on the immune response at low doses (immune response [1]) | Effect on the immune response at low doses (immune response [1]; [4]) |
| --- | --- | --- | --- | --- | --- | --- | --- | --- |
| Phe-Phe-Gly-Leu-Met-NH2 (FFGLM-NH2) [SP^7-11, No. 2] | distinct immuno-suppression in vivo | immunosuppressant | suppressed the immune response in vitro | immunosuppressant | – | – | – | – |
| Gly-Pro-Arg-Pro (GPRP) [SP^1-4, No. 5] | – | – | – | – | slightly stimulated | stimulatory at a higher dose | only moderately suppressed the immune response | suppressive at one dose |
